Results reported in patent US20100323012A1, “Pharmaceutical Compositions Comprising NEP-Inhibitors, Inhibitors of the Endogenous Endothelin Producing System and Diuretics” (Solvay Pharmaceuticals GmbH, priority 2005, published 2010).

System: spontaneously hypertensive rat
Assay: Telemetric monitoring of blood pressure and heart rate in spontaneously hypertensive rats, compounds given via drinking water
Format: in vivo
Conditions: male SHR; for effect on blood pressure (in words): 3 weeks of treatment via drinking water; for DBP (diastolic blood pressure), effect in relation to baseline, group mean of 24 hour means / HR (heart rate), effect in relation to baseline, group mean of 24 hour means / SBP (systolic blood pressure), effect in relation to baseline, group mean of 24 hour means: day 23 (after 3 weeks of treatment) minus baseline (day 3), via drinking water, intended 10 mg/kg/day hydrochlorothiazide, 100 mg/kg/day daglutril, n = 5 per group
Excerpt: Male spontaneously hypertensive rats (=SHR, insulin resistant strain from Charles River; aged 6 months) were equipped with telemetry transmitters for continuous monitoring of blood pressure and heart rate (TA11PA-C40, DSI, USA). Telemetry transmitters for continuous monitoring of blood pressure, heart rate and locomotor activity (TA11PA-C40, Data Sciences, USA) were implanted intraabdominally under inhalative halothane anesthesia. A midline abdominal incision was made, and the abdominal aorta was visualized by removal of retroperitoneal fat and connective tissue. A ligature was placed caudal of the renal arteries, the aorta was punctured with a 22G needle, and the catheter was advanced into the aorta. The entry point was sealed with tissue adhesive (Vetbond, 3M, USA), the ligature was removed, and the abdominal incision was closed. Measurements of aortic pressure were taken every 5 minutes (=min) for 4 seconds (=s) each at a sampling rate of 500 Hz, and were corrected for the corresponding ambient pressure (ambient pressure monitor, C11PR, Data Sciences, USA).
After 3 days of monitoring under baseline (untreated) conditions, animals received daglutril via their drinking water. The intended daily dose was 100 mg/kg/day of daglutril. The concentration in drinking water was adjusted once per week, resulting in an average drug intake of 98 mg/kg/day.
In a second experiment, rats were divided into two treatment groups receiving hydrochlorothiazide or hydrochlorothiazide+daglutril. Compounds were administered via the drinking water, and daily drug intake was measured by weighing the water bottles thrice weekly. Intended daily doses were 10 mg/kg/day of hydrochlorothiazide plus, in the combination group, 100 mg/kg/day of daglutril.
Concentrations of hydrochlorothiazide and daglutril in the drinking water were adjusted once per week, in order to ensure the intended daily intake of 10 and 100 mg/kg, respectively. The average daily water intake amounted to 57 and 46 ml/kg in the hydrochlorothiazide and hydrochlorothiazide+daglutril group, respectively, resulting in the uptake of 9.5 mg/kg/day of hydrochlorothiazide in the hydrochlorothiazide group, and 9.4 mg/kg/day of hydrochlorothiazide and 94.4 mg/kg/day of daglutril in the combination group.
The blood pressure, heart rate and activity values, sampled in 5 min intervals by the Dataquest™ system, were used for calculation of individual 24 hour means. These 24 hour means were exported to Excel, and group mean values of systolic blood pressure (=SBP), diastolic blood pressure (=DBP), heart rate (=HR), and locomotor activity (=ACT) were calculated for the daglutril, hydrochlorothiazide and the hydrochlorothiazide+daglutril groups. For the statistical analysis, a baseline value (pre) was calculated from the last day prior to compound application (day 3), and effects of daglutril, hydrochlorothiazide and hydrochlorothiazide+daglutril were calculated in relation to this baseline value (day 23, i.e. after 3 weeks of treatment, minus baseline value). The statistical comparison was done by using univariate ANOVA at an error level of P<0.05.

Structure (SMILES)	effect on blood pressure (in words)	DBP (diastolic blood pressure), effect in relation to baseline, group mean of 24 hour means	HR (heart rate), effect in relation to baseline, group mean of 24 hour means	SBP (systolic blood pressure), effect in relation to baseline, group mean of 24 hour means
NS(=O)(=O)c1cc2c(cc1Cl)NCNS2(=O)=O [HCTZ, hydrochlorothiazide]	moderate decrease	−7.7 mmHg	-4.5 min⁻¹	−11.3 mmHg
CCOC(=O)C(CCc1ccccc1)CC1(C(=O)NC2CCc3ccccc3N(CC(=O)O)C2=O)CCCC1 (centres unmarked) [daglutril, 2-[1-(1-carboxymethyl-2-oxo-2,3,4,5-tetrahydro-1H-benzo[b]azepin-3-ylcarbamoyI)-cyclopentylmethyl]-4-phenyl-butyric acid ethyl ester]	no effect	2.0 mmHg	-6.0 min⁻¹	−0.3 mmHg
